Results published in paper PMC3049263 (Bioorganic & medicinal chemistry, 2010).
Read-outs that look alike come from different tables or passages of the source.

Assays:
gp120 = gp120 (Human immunodeficiency virus type 1 group M subtype B, UniProt P35961); assay: Isothermal titration calorimetry binding to gp120
wild-type HIV-1YU2 virus = format: cell-based; details: CD4-expressing Cf2Th-CCR5 target cells
recombinant HIV-1YU2 = format: cell-based; details: CD4-deficient Cf2Th-CCR5 cells
[1] = system: D368A mutant HIV-1YU2 envelope glycoproteins; format: cell-based; details: vestibule of the Phe 43 cavity
[2] = system: S375A mutant HIV-1YU2 envelope glycoproteins; format: cell-based; details: base of the Phe 43 cavity

SMILES: CC(C)N1CCC(NC(=O)C(=O)Nc2ccc(Cl)c(F)c2)CC1 [Compound 11]
- gp120 binding affinity (in words) (gp120; ITC): retention of binding affinity

SMILES: CC1(C)CC(NC(=O)C(=O)Nc2ccc(Cl)c(F)c2)CC(C)(C)C1 [Compound 17]
- Inhibition of CD4-gp120 binding / viral infection (in words) (wild-type HIV-1YU2 virus): failed to exhibit inhibition

SMILES: CC1(C)C2CCC1(C)C(NC(=O)C(=O)Nc1ccc(Cl)c(F)c1)C2 (stereo not shown) [Compound 18]
- Inhibition of CD4-gp120 binding / viral infection (in words) (wild-type HIV-1YU2 virus): failed to exhibit inhibition

SMILES: CC1(C)CC(NC(=O)C(=O)Nc2ccc(Cl)c(F)c2)CC(C)(C)O1 [Compound 19]
- gp120 binding affinity (in words) (gp120; ITC): reduced binding

SMILES: CC1(C)CC(NC(=O)C(=O)Nc2ccc(Cl)c(F)c2)CC(C)(C)[N+]1(C)[O-] (stereo not shown) [Compound 20]
- gp120 binding affinity (in words) (gp120): reduced binding

SMILES: CC(C)N1CCCCC1CCNC(=O)C(=O)Nc1ccc(Cl)c(F)c1 (stereo not shown) [Compound 25]
- Inhibition of CD4-gp120 binding / viral infection (in words) (wild-type HIV-1YU2 virus): improved IC50

SMILES: O=C(NCC1NCCc2ccccc21)C(=O)Nc1ccc(Cl)c(F)c1 (stereo not shown) [Compound 39]
- Enhancement of viral infectivity (in words) (recombinant HIV-1YU2): decreased enhancement of viral infectivity

SMILES: CCN1CCCC1CNC(=O)C(=O)Nc1ccc(Cl)cc1 (stereo not shown) [Compound 42]
- Inhibition of CD4-gp120 binding / viral infection (in words) (wild-type HIV-1YU2 virus): inhibited CD4-gp120 binding

SMILES: CCN1CCCC1CNC(=O)C(=O)Nc1ccc(Cl)c(F)c1 (stereo not shown) [Compound 43]
- gp120 binding affinity (in words) (gp120; ITC): binding affinity comparable to 41
- Enhancement of viral infectivity (in words) (recombinant HIV-1YU2): without the accompanying enhancement of viral infectivity

SMILES: O=C(Nc1ccc(Cl)c(F)c1)C(=O)NC1CCNC2(CCC2)C1 (stereo not shown) [Compound 49]
- Effect of D368A mutation on analogue binding (in words) [1]: negative effect
- gp120 binding affinity (in words) (gp120; ITC): sub-micromolar binding affinity
- Enhancement of viral infectivity (in words) (recombinant HIV-1YU2): activation of viral infectivity similar to 1
- Effect of S375A mutation on inhibition of CD4-gp120 binding (in words) [2]: increases the ability of these analogues to inhibit CD4-gp120 binding
- Inhibition of CD4-gp120 binding / viral infection (in words) (wild-type HIV-1YU2 virus): maintained inhibition

SMILES: C[C@@H]1CCC[C@H](C)N1CCNC(=O)C(=O)Nc1ccc(Cl)c(F)c1 [Compound 50]
- Effect of D368A mutation on analogue binding (in words) [1]: negative effect
- Enhancement of viral infectivity (in words) (recombinant HIV-1YU2): ineffective at enhancing viral infectivity
- Effect of S375A mutation on inhibition of CD4-gp120 binding (in words) [2]: increases the ability of these analogues to inhibit CD4-gp120 binding

SMILES: O=C(NCC1CCCN(CCO)C1)C(=O)Nc1ccc(Cl)c(F)c1 (stereo not shown) [Compound 51]
- Enhancement of viral infectivity (in words) (recombinant HIV-1YU2): ineffective at enhancing viral infectivity
